Marks after values point to notes of the source that are not given here.
Experiments:
[1] = test system: Pinus halepensis cuttings; test: rooting and root development in pine cuttings; format: in vivo; details: 400 ppm IBA potassium salt + 5 ppm conjugate, 4 hours dip; 12 weeks
Experimental: The effects of exemplary D-amino acid conjugates of 4-CPA (Compounds to and Is) on rooting in Pinus halepensis cuttings were compared with those of 2-DP-glycine methyl ester conjugate (2-DP-Gly). Rooting mature pine cuttings (i.e., cuttings that are taken from trees more than 4 years old) is very difficult.
Apical cuttings were taken from 7-year-old trees, stored for 4 weeks at 4° C., and treated by dipping the cutting bases for 4 hours in the following solution: 400 ppm IBA potassium salt+5 ppm tested conjugate+0.1% Amistar™ fungicide (250 grams/liter azoxystrobin). The cuttings were evaluated after 12 weeks.

[2] = 4-CPA levels in Eucalyptus grandis cuttings by LC-MS (translocation, release from conjugates); format: in vivo
Experimental: E. grandis cuttings were harvested at time 0, 1, 6 and 24 hours after the indicated treatments. The cutting foliage and basal ends (approximately 2-3 cm of the base) were harvested separately using a sharp pruning shear, rinsed well under a tap water stream, wiped with a paper towel and frozen in liquid nitrogen. Then, each sample was grinded well while still frozen, using an IKA lab mill. For the analysis, 3-6 technical replicates, weight 190-240 mg, were taken from each sample into fresh 2 ml Eppendorf™ tubes. Auxins were extracted in 1 ml of cold 79% isopropanol, 20% methanol and 1% acetic acid solution containing 20 ng of […] IBA and IAA as internal standards. The tubes were vortexed for 1 hr at 4° C. and then centrifuged at 14,000 RPM for 15 minutes. The supernatants were transferred to fresh 2 ml Eppendorf™ tubes. Two more extraction cycles were performed using 0.5 ml of extraction solvent without the internal standards. The tubes containing the collected supernatants were placed in a SpeedVac™ centrifuge for solvent evaporation under room temperature. The pellets were dissolved in pre-chilled 200 μl of 50% methanol, centrifuged, and the supernatant was filtered through […] PDFV syringe filters 13 mm into fresh 2 ml tubes. The ready extractions were kept under −20° C. till analyzed.
LC-MS analyses were conducted using UPLC-Triple Quadrupole-MS device (Waters Xevo TQ MS). Separation was performed on Waters Acquity™ UPLC BEH C18 1.7 μm 2.1×100 mm column with a VanGuard™ precolumn (BEH C18 1.7 μm 2.1×5 mm). Chromatographic and MS parameters were as follows: the mobile phase consisted of water (phase A) and acetonitrile (phase B), both containing 0.1% formic acid in the gradient elution mode. The solvent gradient program was as follows: […]
The flow rate was 0.3 ml/minute, and the column temperature was kept at 35° C. The analyses were performed using the ESI source in negative ion mode with the following settings: capillary voltage 3.1 kV, cone voltage 30 V, desolvation temperature 400° C., desolvation gas flow 565 liters/hour, source temperature 140° C. Quantitation was performed using MRM acquisition by monitoring the 185/127, 185/141, RT=5.77, dwell time of 161 msec for each transition. Calibration curve was used to calculate the concentration of 4-CPA. Acquisition of LC-MS data was performed under MassLynx™ V4.1 software (Waters).
In order to determine whether trend observed in Arabidopsis occurs also in eucalyptus cuttings, the 4-CPA translocation directionality was first examined by treating cuttings with 4-CPA (100 μM) either by submergence of the cutting base or by spraying the leaves. At several time points (i.e. 0, 1, 6 and 24 hours), the cutting base (bottom 2 cm) and the leaves were separately extracted (with isopropanol/methanol/acetic acid solution) and 4-CPA levels were determined by HPLC-MS/MS.
In order to evaluate the rate of conjugates hydrolysis, 4-CPA levels were monitored following treatment with Compounds 1s and 1t. Cuttings were treated with IBA alone (by submerging the cutting base), or with IBA and Compound 1s or it by submerging the cutting base and by spraying the leaves with Compound 1s or 1t. Cutting bases (bottom 2 cm) and leaves were separately extracted 6, 24 and 48 hours after treatment and hormones levels were determined by HPLC-MS/MS.

[3] = 100 μM 4-CPA applied to the cutting base

Structure (SMILES): COC(=O)[C@@H](Cc1c[nH]c2ccccc12)NC(=O)COc1ccc(Cl)cc1 [Compound 1s, 4-CPA-D-Trp]
- Degree of root development Medium (%) [1]: 0%
- Degree of root development Weak (%) [1]: 6.2%
- Degree of root development Well-developed (%) [1]: 81.3* %
- Rooting rate (%) [1]: 92.9%

Structure (SMILES): O=C(O)COc1ccc(Cl)cc1 [Compound 4-CPA, 4-chloro-phenoxyacetic acid, reference compound]
- 4-CPA level locally (leaves) and in the cutting base ([2]; 100 μM 4-CPA applied to leaves by spraying): about 150 ng/gram
- 4-CPA level in leaves [2, 3]: less than 10 ng/gram
- 4-CPA level in the cutting base (local) [2, 3]: about 275 ng/gram
- time at which 4-CPA levels peaked following application to the leaves ([2]; 100 μM 4-CPA sprayed on leaves): 6 h
- 4-CPA levels throughout the measurements ([2]; treatment with free 4-CPA or with conjugate): 250-300 ng/gram

Source: patent US20220030866A1, “CONJUGATES OF AUXIN ANALOGS” (The State of Israel, Ministry of Agriculture & Rural …, priority 2019, published 2022)
